Experimental data as given in article PMC6385989, “Metformin Affects Heme Function as a Possible Mechanism of Action” (G3: Genes|Genomes|Genetics, 2018).

Legend:
Assay in all cases: absorbance of reduced form, protection from air oxidation, one-site fit
Format in all cases: binding
[1] = target: T1, myoglobin (Homo sapiens, UniProt P02144)
T1 construct: gene MB; commercial protein with heme
T1 sequence (P02144 2-154): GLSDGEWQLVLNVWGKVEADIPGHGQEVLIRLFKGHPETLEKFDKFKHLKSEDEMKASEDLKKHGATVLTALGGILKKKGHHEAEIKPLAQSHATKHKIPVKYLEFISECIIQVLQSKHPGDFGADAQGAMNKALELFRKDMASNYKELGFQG

[2] = target: T2, cytochrome c; conditions: PBS, 2 mM NH4OAc, ambient, 5 days; apparent, for retaining ferrous heme
T2 construct: gene CYCS; commercial reduced cytochrome c with heme

[3] = target: T3, hemoglobin (Homo sapiens, UniProt P68871+P69905)
T3 construct: gene HBA1; commercial lyophilized hemoglobin with heme
T3 sequence (P69905 2-142): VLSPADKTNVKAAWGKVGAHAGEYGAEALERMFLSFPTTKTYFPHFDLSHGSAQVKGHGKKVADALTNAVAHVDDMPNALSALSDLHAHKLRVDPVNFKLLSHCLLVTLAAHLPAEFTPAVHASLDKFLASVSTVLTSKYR
T3 sequence (P68871 2-147): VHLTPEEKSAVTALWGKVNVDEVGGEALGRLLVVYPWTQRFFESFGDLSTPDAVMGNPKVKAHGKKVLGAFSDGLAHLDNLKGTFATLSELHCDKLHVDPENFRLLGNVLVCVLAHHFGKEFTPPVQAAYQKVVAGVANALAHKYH

Kd [1]: 570 µM | Kd [2]: 1150 µM | Kd [3]: 860 µM
Structure (SMILES): CN(C)C(=N)NC(=N)N [metformin]
